Assay results taken from patent US20160340322A1 (NISSAN CHEMICAL INDUSTRIES, LTD., priority 2013, published 2016).

Target: T1, Human T-type calcium channel (Cav 3.2) (Homo sapiens, UniProt O95180)
T1 construct: Edward Perez-Reyes, University of Virginia, USA; host or cells: HEK293
Assay: Calcium Influx Inhibition Assay
Assay type: cell-based
Conditions: human T-type calcium channel (Cav 3.2) expressing HEK293 cells; FLIPR Calcium 4 fluorescence; 30 min compound incubation; read-out: T-type calcium channel inhibition concentration IC50
Method: 1. Calcium Influx Inhibition Assay Human T-type calcium channel (Cav 3.2) expressing HEK293 cells were introduced from Prof. Edward Perez-Reyes, University of Virginia, USA. The calcium-sensitive fluorescent dye used was FLIPR Calcium 4 Assay Kit (Molecular Devices). To a black 96-well plate with a clear bottom coated with type I collagen, the human T-type calcium channel (Cav 3.2) expressing HEK293 cells were seeded and cultured overnight, and the culture medium was removed. A solution of the calcium-sensitive fluorescent dye was added, and the resultant plate was incubated at 37° C. in an atmosphere of 5% carbon dioxide for 30 minutes. To the plate, a diluted solution of a compound was added, and subjected to further incubation at 37° C. in an atmosphere of 5% carbon dioxide for 30 minutes. While fluorescence was continuously analyzed from the bottom with a FlexStation 3 (Molecular Devices), a calcium solution was added. […] Based on the rise value in the fluorescence from the base line, the inhibition percentage was calculated. The logarithms of compound concentrations were plotted with respect to the inhibition activities to obtain an IC50 value.

T1 sequence (O95180 whole entry): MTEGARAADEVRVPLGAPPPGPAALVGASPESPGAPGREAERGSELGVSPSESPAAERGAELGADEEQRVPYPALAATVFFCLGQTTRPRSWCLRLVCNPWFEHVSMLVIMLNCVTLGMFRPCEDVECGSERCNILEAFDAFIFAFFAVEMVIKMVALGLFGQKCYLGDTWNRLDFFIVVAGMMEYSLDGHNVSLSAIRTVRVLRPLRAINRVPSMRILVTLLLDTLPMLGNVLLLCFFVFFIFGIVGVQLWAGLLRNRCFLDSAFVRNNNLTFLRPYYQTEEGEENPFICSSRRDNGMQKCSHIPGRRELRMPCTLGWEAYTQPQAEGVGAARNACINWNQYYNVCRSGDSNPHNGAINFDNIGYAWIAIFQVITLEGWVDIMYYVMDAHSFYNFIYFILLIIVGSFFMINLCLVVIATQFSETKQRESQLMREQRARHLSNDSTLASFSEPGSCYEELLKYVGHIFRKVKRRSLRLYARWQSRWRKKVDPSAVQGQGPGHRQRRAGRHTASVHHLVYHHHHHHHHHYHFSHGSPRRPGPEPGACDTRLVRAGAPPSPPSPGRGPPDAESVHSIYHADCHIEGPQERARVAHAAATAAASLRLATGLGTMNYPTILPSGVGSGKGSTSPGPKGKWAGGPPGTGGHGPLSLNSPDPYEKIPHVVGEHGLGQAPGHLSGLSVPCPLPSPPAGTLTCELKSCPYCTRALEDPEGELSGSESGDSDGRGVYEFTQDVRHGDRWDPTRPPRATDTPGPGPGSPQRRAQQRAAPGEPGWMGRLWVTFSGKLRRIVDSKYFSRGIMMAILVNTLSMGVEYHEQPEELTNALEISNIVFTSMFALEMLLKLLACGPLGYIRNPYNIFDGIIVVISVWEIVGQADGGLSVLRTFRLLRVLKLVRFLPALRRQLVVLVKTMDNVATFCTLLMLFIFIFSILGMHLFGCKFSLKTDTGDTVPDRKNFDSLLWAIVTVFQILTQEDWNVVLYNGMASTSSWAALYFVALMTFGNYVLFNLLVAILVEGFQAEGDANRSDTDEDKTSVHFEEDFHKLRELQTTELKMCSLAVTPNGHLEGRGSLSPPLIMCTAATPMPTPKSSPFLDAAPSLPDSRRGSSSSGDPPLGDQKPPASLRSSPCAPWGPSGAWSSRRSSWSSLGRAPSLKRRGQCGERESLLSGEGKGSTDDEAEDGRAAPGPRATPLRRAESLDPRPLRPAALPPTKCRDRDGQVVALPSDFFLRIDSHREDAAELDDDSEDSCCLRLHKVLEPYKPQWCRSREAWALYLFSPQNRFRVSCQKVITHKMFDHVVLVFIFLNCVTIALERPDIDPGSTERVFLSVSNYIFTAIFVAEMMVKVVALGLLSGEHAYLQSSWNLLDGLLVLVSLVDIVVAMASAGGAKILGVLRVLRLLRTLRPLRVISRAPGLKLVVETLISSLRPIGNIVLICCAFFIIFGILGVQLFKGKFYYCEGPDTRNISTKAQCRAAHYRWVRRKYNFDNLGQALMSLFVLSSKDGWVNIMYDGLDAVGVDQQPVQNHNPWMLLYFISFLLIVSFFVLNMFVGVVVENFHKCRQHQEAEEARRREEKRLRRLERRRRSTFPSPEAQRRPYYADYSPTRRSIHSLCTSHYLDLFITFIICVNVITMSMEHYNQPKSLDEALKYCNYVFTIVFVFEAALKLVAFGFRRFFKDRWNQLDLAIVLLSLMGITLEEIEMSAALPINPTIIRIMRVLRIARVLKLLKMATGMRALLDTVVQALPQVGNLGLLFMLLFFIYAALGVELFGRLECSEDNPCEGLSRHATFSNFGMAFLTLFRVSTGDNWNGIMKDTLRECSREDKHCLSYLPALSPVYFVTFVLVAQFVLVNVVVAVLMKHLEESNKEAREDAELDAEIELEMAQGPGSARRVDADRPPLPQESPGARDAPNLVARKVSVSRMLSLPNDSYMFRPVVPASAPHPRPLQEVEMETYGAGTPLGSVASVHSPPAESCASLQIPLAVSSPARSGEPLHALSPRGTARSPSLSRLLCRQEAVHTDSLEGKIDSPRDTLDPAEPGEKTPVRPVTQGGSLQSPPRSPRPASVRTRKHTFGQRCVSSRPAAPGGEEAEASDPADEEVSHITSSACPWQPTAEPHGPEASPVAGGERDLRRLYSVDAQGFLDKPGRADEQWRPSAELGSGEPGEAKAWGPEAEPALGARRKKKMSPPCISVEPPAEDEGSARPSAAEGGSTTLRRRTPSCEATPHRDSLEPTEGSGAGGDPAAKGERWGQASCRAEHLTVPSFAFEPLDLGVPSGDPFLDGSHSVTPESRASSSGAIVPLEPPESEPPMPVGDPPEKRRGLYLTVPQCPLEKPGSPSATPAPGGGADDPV

Row | IC50 [nM] | Structure (SMILES)
1 | 12 | COc1nc(C2=CCN(c3cnn(Cc4ccc(C(F)(F)F)s4)c(=O)n3)C[C@@H]2O)ccc1Cl [Synthesis Example 29, (R)-5-[5-Chloro-5′-hydroxy-6-methoxy-5′,6′-dihydro-(2,4′-bipyridine)-1′(2′H)-yl]-2-{[5-(trifluoromethyl)thiophen-2-yl]methyl}-1,2,4-triazin-3(2H)-one]
2 | 120 | Cc1cccc(C2=CCN(c3cnn(Cc4ccc(C(F)(F)F)s4)c(=O)n3)C[C@@H]2O)n1 [Synthesis Example 31, (R)-5-[5′-Hydroxy-6-methyl-5′,6′-dihydro-(2,4′-bipyridin)-1′(2′H)-yl]-2-{[5-(trifluoromethyl)thiophen-2-yl]methyl}-1,2,4-triazin-3 (2H)-one]
3 | 31 | O=c1nc(N2CC=C(c3ccc(F)cc3)C(F)C2)cnn1Cc1ccc(C(F)(F)F)s1 (centres unmarked) [Synthesis Example 35, 5-[5-Fluoro-4-(4-fluorophenyl)-5,6-dihydropyridin-1(2H)-yl]-2-{[5-(trifluoromethyl)thiophen-2-yl]methyl}-1,2,4-triazin-3(2H)-one]
4 | 72 | Cc1cc(F)ccc1C1=CCN(c2cnn(Cc3ccc(C(F)(F)F)s3)c(=O)n2)C[C@@H]1O [Synthesis Example 30, (R)-5-[4-(4-Fluoro-2-methylphenyl)-5-hydroxy-5,6-dihydropyridin-1(2H)-yl]-2-{[5-(trifluoromethyl)thiophen-2-yl]methyl}-1,2,4-triazin-3(2H)-one]
5 | 6.4 | CC(C)(C)c1ccc(Cn2ncc(N3CC=C(c4ccc(F)cc4)[C@@H](O)C3)nc2=O)s1 [Synthesis Example 48, (R)-2-{[5-(Tert-butyl)thiophen-2-yl]methyl}-5-[4-(4-fluorophenyl)-5-hydroxy-5,6-dihydropyridin-(2H)-yl]-1,2,4-triazin-3(2H)-one]
6 | 5.6 | O=c1nc(N2CC=C(c3ccc(F)cc3)[C@@H](O)C2)cnn1Cc1ccc(OS(=O)(=O)C(F)(F)F)nc1 [Synthesis Example 51, (R)-5-({5-[4-(4-Fluorophenyl)-5-hydroxy-5,6-dihydropyridin-1(2H)-yl]-3-oxo-1,2,4-triazin-2(3H)-yl}methyl)pyridin-2-yl trifluoromethanesulfonate]
7 | 2600 | O=c1nc(N2CC=C(c3ccc(F)cc3)[C@@H](O)C2)cnn1Cn1cc(Cl)cn1 [Synthesis Example 47, (R)-2-[(4-Chloro-1H-pyrazol-1-yl)methyl]-5-[4-(4-fluorophenyl)-5-hydroxy-5,6-dihydropyridin-1(2H)-yl]-1,2,4-triazin-3(2H)-one]
8 | 130 | O=c1nc(N2CC=C(c3ccc(F)cc3)[C@@H](O)C2)cnn1Cc1ccc(C(F)(F)F)o1 [Synthesis Example 27, (R)-5-[4-(4-Fluorophenyl)-5-hydroxy-5,6-dihydropyridin-1(2H)-yl]-2-{[5-(trifluoromethyl)furan-2-yl]methyl}-1,2,4-triazin-3(2H)-one]
9 | 180 | Cn1cc(C2=CCN(c3cnn(Cc4ccc(C(F)(F)F)s4)c(=O)n3)C[C@@H]2O)cn1 [Synthesis Example 38, (R)-5-[5-Hydroxy-4-(1-methyl-1H-pyrazol-4-yl)-5,6-dihydropyridin-1(2H)-yl]-{[5-(trifluoromethyl)thiophen-2-yl]methyl}-1,2,4-triazin-3(2H)-one]
10 | 62 | CC(C)(C)c1ncc(Cn2ncc(N3CC=C(c4ccc(F)cc4)[C@@H](O)C3)nc2=O)o1 [Synthesis Example 50, (R)-2-{[2-(Tert-butyl)oxazol-5-yl]methyl}-5-[4-(4-fluorophenyl)-5-hydroxy-5,6-dihydropyridin-1(2H)-yl]-1,2,4-triazin-3(2H)-one]
11 | 48 | COc1cccc(C2=CCN(c3cnn(Cc4ccc(C(F)(F)F)s4)c(=O)n3)C[C@@H]2O)n1 [Synthesis Example 32]
12 | 1300 | Cn1ccc(C2=CCN(c3cnn(Cc4ccc(C(F)(F)F)s4)c(=O)n3)CC2)n1 [Synthesis Example 39, 5-[4-(1-Methyl-1H-pyrazol-3-yl)-5,6-dihydropyridin-1(2H)-yl]-2-{[5-(trifluoromethyl)thiophen-2-yl]methyl}-1,2,4-triazin-3(2H)-one]
13 | 25 | O=c1nc(N2CC=C(c3ccc(F)cc3)[C@@H](O)C2)cnn1Cn1ccc(C(F)(F)C(F)(F)F)n1 [Synthesis Example 49, (R)-5-[4-(4-Fluorophenyl)-5-hydroxy-5,6-dihydropyridin-1(2H)-yl]-2-{[3-(perfluoroethyl)-1 H-pyrazol-1-yl]methyl}-1,2,4-triazin-3(2H)-one]

The next lines start with the molecule.

Row | Structure (SMILES) | IC50 [nM]
14 | COc1ccc2c(c1)CCN(c1cnn(Cc3cnc(C(F)(F)F)s3)c(=O)n1)C2C (centres unmarked) [Synthesis Example 19] | 2200
15 | O=c1nc(N2CCc3c([nH]c4cc(F)ccc34)C2)cnn1Cc1cnc(C(F)(F)F)s1 [Synthesis Example 14, 5-(7-Fluoro-3,4-dihydro-1H-pyrido[3,4-b]indol-2(9H)-yl)-2-{[2-(trifluoromethyl)thiazol-5-yl]methyl}-1,2,4-triazin-3(2H)-one] | 39
16 | O=c1nc(N2CCN(c3ccc(F)cc3)CC2)cnn1Cc1ccc(OCc2ccc(Cl)cc2)cc1 [Synthesis Example 3, 2-{4-[(4-Chlorobenzyl)oxy]benzyl}-5-[4-(4-fluorophenyl)piperazin-1-yl]-1,2,4-triazin-3(2H)-one] | 200
17 | Cc1cc(C2=CCN(c3cnn(Cc4ccc(C(F)(F)F)s4)c(=O)n3)C[C@@H]2O)cs1 [Synthesis Example 15, (R)-5-[5-Hydroxy-4-(5-methylthiophen-3-yl)-5,6-dihydropyridin-1(2H)-yl]-2-{[5-(trifluoromethyl)thiophen-2-yl]methyl}-1,2,4-triazin-3(2H)-one] | 1
18 | O=c1nc(N2CCN(c3ccc(F)c(Cl)c3)CC2)cnn1Cc1cnc(C(F)(F)F)s1 [Synthesis Example 21, 5-[4-(3-Chloro-4-fluorophenyl)piperazin-1-yl]-2-{[2-(trifluoromethyl)thiazol-5-yl]methyl}-1,2,4-triazin-3(2H)-one] | 230
19 | O=c1nc(N2CCN(c3ccc(F)cc3)CC2)cnn1Cc1cnc(C(F)(F)F)s1 [Synthesis Example 10, 5-[4-(4-Fluorophenyl)piperazin-1-yl]-2-{[2-(trifluoromethyl)thiazol-5-yl]methyl}-1,2,4-triazin-3(2H)-one] | 490
20 | CCCCCCOc1ccc(Cn2ncc(N3CCN(c4ccc(F)cc4)CC3)nc2=O)cc1 [Synthesis Example 2, 5-[4-(4-Fluorophenyl)piperazin-1-yl]-2-[4-(hexyloxy)benzyl]-1,2,4-triazin-3(2H)-one] | 38
21 | O=c1nc(N2CC=C(c3ccc(F)cc3)C(F)C2)cnn1Cc1cnc(C(F)(F)F)s1 (centres unmarked) [Synthesis Example 22, 5-[5-Fluoro-4-(4-fluorophenyl)-5,6-dihydropyridin-(2H)-yl]-2-{[2-(trifluoromethyl)thiazol-5-yl]methyl}-1,2,4-triazin-3(2H)-one] | 120
22 | CCOc1ccc2c(c1)C(O)CN(c1cnn(Cc3cnc(C(F)(F)F)s3)c(=O)n1)C2 (centres unmarked) [Synthesis Example 18, 5-[6-Ethoxy-4-hydroxy-3,4-dihydroisoquinolin-2(1H)-yl]-2-{[2-(trifluoromethyl)thiazol-5-yl]methyl}-1,2,4-triazin-3(2H)-one] | 2900
23 | O=c1nc(N2CCN(c3ccc(F)cc3)CC2)cnn1Cc1ccc(Cl)cc1 [Synthesis Example 1, 2-(4-Chlorobenzyl)-5-[4-(4-fluorophenyl)piperazin-1-yl]-1,2,4-triazin-3(2H)-one] | 220
24 | O=c1nc(N2CCc3c([nH]c4cc(F)ccc34)C2)cnn1Cc1ccc(C(F)(F)F)s1 [Synthesis Example 9, 5-(7-Fluoro-3,4-dihydro-1H-pyrido[3,4-b]indol-2(9H)-yl)-2-{[5-(trifluoromethyl)thiophen-2-yl]methyl}-1,2,4-triazin-3(2H)-one] | 17
25 | O=c1nc(N2CCN(c3ccc(F)cc3)CC2)cnn1Cc1ccc(C(F)(F)F)s1 [Synthesis Example 5, 5-[4-(4-Fluorophenyl)piperazin-1-yl]-2-{[5-(trifluoromethyl)thiophen-2-yl]methyl}-1,2,4-triazin-3(2H)-one] | 27
26 | Cc1cc(C2=CCN(c3cnn(Cc4cnc(C(F)(F)F)s4)c(=O)n3)C[C@@H]2O)cs1 [Synthesis Example 12, (R)-5-[5-Hydroxy-4-(5-methylthiophen-3-yl)-5,6-dihydropyridin-1(2H)-yl]-2-{[2-(trifluoromethyl)thiazol-5-yl]methyl}-1,2,4-triazin-3(2H)-one] | 26
27 | Cc1ccc(N2CCN(c3cnn(Cc4ccc(C(F)(F)F)s4)c(=O)n3)CC2)nc1 [Synthesis Example 8, 5-[4-(5-methylpyridin-2-yl)piperazin-1-yl]-2-{[5-(trifluoromethyl)thiophene-2-yl]methyl}-1,2,4-triazin-3(2H)-one] | 210
28 | Cc1ccc(N2CCN(c3cnn(Cc4cnc(C(F)(F)F)s4)c(=O)n3)CC2)nc1 [Synthesis Example 13, 5-[4-(5-Methylpyridin-2-yl)piperazin-1-yl]-2-{[2-(trifluoromethyl)thiazol-5-yl]methyl}-1,2,4-triazine-3(2H)-one] | 6100
29 | O=c1nc(N2Cc3ccc(O)cc3C(O)C2)cnn1Cc1ccc(C(F)(F)F)s1 (centres unmarked) [Synthesis Example 25, 5-[4,6-Dihydroxy-3,4-dihydroisoquinolin-2(1H)-yl]-2-{[5-(trifluoromethyl)thiophen-2-yl]methyl}-1,2,4-triazin-3(2H)-one] | 1800
